From article PMC5216056 (Nature Communications, 2017)
Where two headings read alike, the source gives them in different places.

What was measured:
[1] = 1 μM
[2] = 1 μM; remark: listed apart in the source
[3] = tested on: BZD (central); format: binding; details: 10 µM
[4] = molecular target: hCB2R (Homo sapiens, UniProt P34972); design: expressed in transfected cells; host or cells: Flp-In-293 (Invitrogen #R750-07), pcDNA5/FRT
[5] = molecular target: T1, Rat recombinant TRPV3 (Rattus norvegicus, UniProt Q4QYD9); test: cell-based; format: cell-based; details: for EC50: read-out: TRPV3 Potency EC50; for IC50: vs thymol 100μM, read-out: TRPV3 IC50 for antagonism or desensitization
T1 construct: expressed in transfected cells; host or cells: HEK293 (TRPV3-HEK-293, gift from HB Bradshaw, Indiana University)
T1 sequence (Q4QYD9 1-791): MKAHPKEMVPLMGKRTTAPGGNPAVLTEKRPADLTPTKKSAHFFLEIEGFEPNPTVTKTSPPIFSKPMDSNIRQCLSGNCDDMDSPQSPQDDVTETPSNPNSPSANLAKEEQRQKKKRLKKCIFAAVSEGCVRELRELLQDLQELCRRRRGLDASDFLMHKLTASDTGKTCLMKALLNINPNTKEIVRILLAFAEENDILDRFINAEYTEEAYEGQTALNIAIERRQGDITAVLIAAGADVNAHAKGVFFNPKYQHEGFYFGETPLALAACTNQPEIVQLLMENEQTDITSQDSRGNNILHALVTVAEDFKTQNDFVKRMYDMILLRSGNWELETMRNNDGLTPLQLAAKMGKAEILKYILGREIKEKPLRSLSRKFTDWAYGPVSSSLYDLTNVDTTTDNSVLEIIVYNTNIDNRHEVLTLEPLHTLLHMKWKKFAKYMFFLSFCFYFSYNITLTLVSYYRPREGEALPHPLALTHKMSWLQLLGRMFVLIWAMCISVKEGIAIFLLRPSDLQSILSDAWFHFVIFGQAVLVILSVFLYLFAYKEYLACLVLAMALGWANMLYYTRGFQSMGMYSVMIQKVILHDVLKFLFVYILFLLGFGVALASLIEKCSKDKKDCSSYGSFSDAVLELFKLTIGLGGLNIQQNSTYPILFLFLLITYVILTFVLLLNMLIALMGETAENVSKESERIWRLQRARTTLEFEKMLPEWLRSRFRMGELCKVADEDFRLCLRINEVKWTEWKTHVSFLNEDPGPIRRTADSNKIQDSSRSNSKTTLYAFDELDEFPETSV

[6] = molecular target: T2, hCB1R (Homo sapiens, UniProt P21554); test: cell-based; format: cell-based
T2 construct: host or cells: CHO

[7] = molecular target: T3, Rat recombinant TRPM8 (Rattus norvegicus, UniProt Q8R455); test: TRP channel [Ca2+]i assay; format: cell-based; details: read-out: TRPM8 IC50 for antagonism of icilin
T3 construct: expressed in transfected cells; host or cells: HEK293 (TRPM8-HEK-293, gift from Mario van der Stelt)

[8] = molecular target: T4, Rat recombinant TRPV4 (Rattus norvegicus, UniProt Q9ERZ8); test: cell-based; format: cell-based; details: for IC50: vs 4αPDD 1μM, read-out: TRPV4 IC50 for desensitization
T4 construct: expressed in transfected cells; host or cells: HEK293 (TRPV4-HEK-293, gift from HB Bradshaw, Indiana University)

[9] = molecular target: T2, hCB1R; test: biochemical; format: biochemical
[10] = vs icilin 0.1μM (second value in cell)

T4 sequence (Q9ERZ8 whole entry): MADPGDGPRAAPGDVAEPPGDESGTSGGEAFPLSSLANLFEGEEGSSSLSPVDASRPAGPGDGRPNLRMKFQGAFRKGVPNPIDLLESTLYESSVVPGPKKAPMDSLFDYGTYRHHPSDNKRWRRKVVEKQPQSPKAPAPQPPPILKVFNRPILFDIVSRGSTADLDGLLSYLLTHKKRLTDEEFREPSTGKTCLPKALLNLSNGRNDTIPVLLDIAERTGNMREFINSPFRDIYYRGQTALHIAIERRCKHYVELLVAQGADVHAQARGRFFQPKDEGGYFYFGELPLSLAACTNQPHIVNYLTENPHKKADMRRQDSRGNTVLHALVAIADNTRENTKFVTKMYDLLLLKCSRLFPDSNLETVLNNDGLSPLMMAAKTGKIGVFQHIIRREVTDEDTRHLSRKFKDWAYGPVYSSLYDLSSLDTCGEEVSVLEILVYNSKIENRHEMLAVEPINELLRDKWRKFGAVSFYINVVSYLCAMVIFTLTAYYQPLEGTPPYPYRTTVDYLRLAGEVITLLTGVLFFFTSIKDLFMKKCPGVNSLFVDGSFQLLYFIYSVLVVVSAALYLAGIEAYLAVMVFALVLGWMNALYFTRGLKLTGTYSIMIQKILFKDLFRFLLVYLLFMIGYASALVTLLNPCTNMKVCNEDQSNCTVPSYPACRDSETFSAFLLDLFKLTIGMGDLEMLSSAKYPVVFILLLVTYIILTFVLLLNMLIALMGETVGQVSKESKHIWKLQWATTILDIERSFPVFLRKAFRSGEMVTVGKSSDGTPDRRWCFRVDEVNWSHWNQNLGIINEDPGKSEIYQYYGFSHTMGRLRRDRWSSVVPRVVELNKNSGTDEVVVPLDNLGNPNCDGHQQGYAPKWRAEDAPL
Sequence of hCB2R (P34972 whole entry): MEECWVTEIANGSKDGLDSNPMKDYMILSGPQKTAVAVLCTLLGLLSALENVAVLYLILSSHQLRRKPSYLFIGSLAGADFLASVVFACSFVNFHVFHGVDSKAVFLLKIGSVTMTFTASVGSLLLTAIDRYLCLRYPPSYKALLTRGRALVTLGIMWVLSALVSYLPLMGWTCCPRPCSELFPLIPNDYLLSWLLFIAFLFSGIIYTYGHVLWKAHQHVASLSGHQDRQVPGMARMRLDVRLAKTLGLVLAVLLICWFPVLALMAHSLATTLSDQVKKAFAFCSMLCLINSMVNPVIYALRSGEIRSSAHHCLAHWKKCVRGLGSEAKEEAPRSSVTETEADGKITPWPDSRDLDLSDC
T2 sequence (P21554 whole entry): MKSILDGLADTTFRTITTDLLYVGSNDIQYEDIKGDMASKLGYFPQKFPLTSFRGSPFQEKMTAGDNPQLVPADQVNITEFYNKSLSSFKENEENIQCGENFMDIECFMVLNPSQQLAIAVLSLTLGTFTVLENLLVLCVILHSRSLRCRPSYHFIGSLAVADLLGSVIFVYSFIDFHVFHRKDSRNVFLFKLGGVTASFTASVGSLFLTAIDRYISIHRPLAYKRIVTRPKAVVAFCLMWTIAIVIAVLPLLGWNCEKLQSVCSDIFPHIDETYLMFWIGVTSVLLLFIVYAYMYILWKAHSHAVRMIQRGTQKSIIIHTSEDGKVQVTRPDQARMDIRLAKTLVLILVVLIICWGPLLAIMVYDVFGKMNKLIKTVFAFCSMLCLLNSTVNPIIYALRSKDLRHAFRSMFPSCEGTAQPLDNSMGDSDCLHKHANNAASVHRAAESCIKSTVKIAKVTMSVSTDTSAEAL
T3 sequence (Q8R455 whole entry): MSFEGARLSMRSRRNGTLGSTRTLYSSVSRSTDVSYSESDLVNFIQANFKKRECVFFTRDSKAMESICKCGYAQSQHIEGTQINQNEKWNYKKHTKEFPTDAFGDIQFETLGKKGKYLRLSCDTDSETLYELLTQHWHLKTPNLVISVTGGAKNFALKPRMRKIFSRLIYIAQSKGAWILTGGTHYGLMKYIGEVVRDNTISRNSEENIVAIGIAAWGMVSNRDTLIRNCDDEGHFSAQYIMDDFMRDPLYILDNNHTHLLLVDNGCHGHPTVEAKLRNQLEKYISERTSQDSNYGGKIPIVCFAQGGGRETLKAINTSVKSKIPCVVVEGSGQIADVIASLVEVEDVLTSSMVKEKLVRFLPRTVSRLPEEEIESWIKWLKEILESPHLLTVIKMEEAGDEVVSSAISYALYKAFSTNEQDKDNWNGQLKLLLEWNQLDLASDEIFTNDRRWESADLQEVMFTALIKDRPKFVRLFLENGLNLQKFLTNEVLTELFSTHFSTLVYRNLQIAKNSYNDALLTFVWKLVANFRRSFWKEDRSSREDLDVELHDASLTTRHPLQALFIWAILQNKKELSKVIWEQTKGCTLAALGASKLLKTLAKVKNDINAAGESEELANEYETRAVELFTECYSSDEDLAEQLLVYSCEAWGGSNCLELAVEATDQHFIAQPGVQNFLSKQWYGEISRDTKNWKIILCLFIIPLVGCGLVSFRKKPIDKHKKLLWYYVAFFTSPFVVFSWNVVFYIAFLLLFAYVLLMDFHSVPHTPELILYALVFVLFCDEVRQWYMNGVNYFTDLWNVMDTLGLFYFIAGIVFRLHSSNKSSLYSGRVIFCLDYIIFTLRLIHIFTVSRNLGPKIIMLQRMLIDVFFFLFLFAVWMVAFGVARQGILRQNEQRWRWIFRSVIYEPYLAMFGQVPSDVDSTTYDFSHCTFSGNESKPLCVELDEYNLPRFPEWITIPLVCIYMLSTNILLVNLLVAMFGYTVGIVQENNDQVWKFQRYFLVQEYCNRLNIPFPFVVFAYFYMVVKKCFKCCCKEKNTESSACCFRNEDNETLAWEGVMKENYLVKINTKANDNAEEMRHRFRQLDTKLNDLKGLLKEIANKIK

CCCn1c(C)c(C(=O)c2cccc3ccccc23)c2ccccc21 [JWH015]
CL hepatocytes human [1]: 16 µL/min/mio cells
CL microsomes human [2]: 41 µL/min/mg protein
% inhibition BZD (central) [3]: -57%

CCCCCCC(C)(C)c1cc(OC)c(C2=C[C@H]3CC[C@]2(CO)C3(C)C)c(OC)c1 [HU910]
GIRK-GTPγS bias factor (BF) ([4]; hCB2R): 0.31
GIRK-GTPγS ΔΔlogR ([4]; hCB2R): -0.51
GIRK-cAMP bias factor (BF) ([4]; hCB2R): 2.42
GIRK-cAMP ΔΔlogR ([4]; hCB2R): 0.38 ± 0.20
GTPγS-cAMP bias factor (BF) ([4]; hCB2R): 7.73
GTPγS-cAMP ΔΔlogR ([4]; hCB2R): 0.89 ± 0.31
LogR GIRK ([4]; hCB2R): 5.90
LogR GTPγS ([4]; hCB2R): 6.82
LogR cAMP ([4]; hCB2R): 8.37
LogR pERK ([4]; hCB2R): 6.94
LogR β-AR ([4]; hCB2R): 7.72
pERK-GIRK bias factor (BF) ([4]; hCB2R): 0.73
pERK-GIRK ΔΔlogR ([4]; hCB2R): -0.13
pERK-GTPγS bias factor (BF) ([4]; hCB2R): 0.23
pERK-GTPγS ΔΔlogR ([4]; hCB2R): -0.64
pERK-cAMP bias factor (BF) ([4]; hCB2R): 1.77
pERK-cAMP ΔΔlogR ([4]; hCB2R): 0.25 ± 0.28
β-AR-GIRK bias factor (BF) ([4]; hCB2R): 15.07
β-AR-GIRK ΔΔlogR ([4]; hCB2R): 1.18 ± 0.22
β-AR-GTPγS bias factor (BF) ([4]; hCB2R): 4.71
β-AR-GTPγS ΔΔlogR ([4]; hCB2R): 0.67 ± 0.32
β-AR-cAMP bias factor (BF) ([4]; hCB2R): 36.90
β-AR-cAMP ΔΔlogR ([4]; hCB2R): 1.57 ± 0.15
β-AR-pERK bias factor (BF) ([4]; hCB2R): 20.56
β-AR-pERK ΔΔlogR ([4]; hCB2R): 1.31 ± 0.29
ΔLogR GIRK ([4]; hCB2R, reference CP55940): -1.96
ΔLogR GTPγS ([4]; hCB2R, reference CP55940): -1.46
ΔLogR cAMP ([4]; hCB2R, reference CP55940): -2.35
ΔLogR pERK ([4]; hCB2R, reference CP55940): -2.1
ΔLogR β-AR ([4]; hCB2R, reference CP55940): -0.78
RE GIRK ([4]; hCB2R, relative effectiveness): 0.01
RE GTPγS ([4]; hCB2R, relative effectiveness): 0.03
RE cAMP ([4]; hCB2R, relative effectiveness): 0.005
RE pERK ([4]; hCB2R, relative effectiveness): 0.01
RE β-AR ([4]; hCB2R, relative effectiveness): 0.16
TRPV3 Efficacy (% ionomycin 4μM) [5]: 31.3%
EC50 [5]: 0.12 ± 0.05 µM
IC50 [5]: 12.9 µM
CL hepatocytes human [1]: 9.2 µL/min/mio cells
Emax ± SEM β-AR recruitment hCB1R [6]: -97 ± 4
pEC50 ± SEM β-AR recruitment hCB1R [6]: 5.31 ± 0.06
CL microsomes human [2]: 90 µL/min/mg protein
IC50 ([7]; vs icilin […]): > 100 µM
TRPV4 Efficacy (% ionomycin 4μM) [8]: < 10%
IC50 [8]: > 100 µM
% inhibition BZD (central) [3]: 0%
pEC50 ± SEM GTPγS hCB1R [9]: < 5

CCCC(C)(C)c1ccc2c(c1)OC(C)(C)[C@@H]1CC=C(C)C[C@@H]21 [JWH133]
GIRK-GTPγS bias factor (BF) [4]: 1.32
GIRK-GTPγS ΔΔlogR [4]: 0.12 ± 0.57
GIRK-cAMP bias factor (BF) [4]: 3.54
GIRK-cAMP ΔΔlogR [4]: 0.55 ± 0.42
GTPγS-cAMP bias factor (BF) [4]: 2.67
GTPγS-cAMP ΔΔlogR [4]: 0.43 ± 0.40
LogR GIRK [4]: 5.98
LogR GTPγS [4]: 6.27
LogR cAMP [4]: 8.28
LogR pERK [4]: 7.07
LogR β-AR [4]: 8.02
RE GIRK [4]: 0.01
RE GTPγS [4]: 0.01
RE cAMP [4]: 0.004
RE pERK [4]: 0.01
RE β-AR [4]: 0.33
pERK-GIRK bias factor (BF) [4]: 0.84
pERK-GIRK ΔΔlogR [4]: -0.08
pERK-GTPγS bias factor (BF) [4]: 1.11
pERK-GTPγS ΔΔlogR [4]: 0.05 ± 0.46
pERK-cAMP bias factor (BF) [4]: 2.97
pERK-cAMP ΔΔlogR [4]: 0.47 ± 0.26
ΔLogR GIRK [4]: -1.89
ΔLogR GTPγS [4]: -2.01
ΔLogR cAMP [4]: -2.44
ΔLogR pERK [4]: -1.96
ΔLogR β-AR [4]: -0.48
β-AR-GIRK bias factor (BF) [4]: 25.53
β-AR-GIRK ΔΔlogR [4]: 1.41 ± 0.43
β-AR-GTPγS bias factor (BF) [4]: 33.81
β-AR-GTPγS ΔΔlogR [4]: 1.53 ± 0.41
β-AR-cAMP bias factor (BF) [4]: 90.36
β-AR-cAMP ΔΔlogR [4]: 1.96 ± 0.15
β-AR-pERK bias factor (BF) [4]: 30.41
β-AR-pERK ΔΔlogR [4]: 1.48 ± 0.27
TRPV3 Efficacy (% ionomycin 4μM) [5]: < 10%
IC50 [5]: 80.6 µM
CL hepatocytes human [1]: 5.6 µL/min/mio cells
Emax ± SEM β-AR recruitment hCB1R [6]: 40 ± 7
pEC50 ± SEM β-AR recruitment hCB1R [6]: 5.37 ± 0.05
CL microsomes human [2]: 38 µL/min/mg protein
IC50 ([7]; vs icilin […]): 48.4 ± 3.5 µM
TRPV4 Efficacy (% ionomycin 4μM) [8]: 13.6%
EC50 ([8]; read-out: TRPV4 Potency EC50): 12 µM
IC50 [8]: > 100 µM
% inhibition BZD (central) [3]: -22%
Emax ± SEM GTPγS hCB1R [9]: 20%
pEC50 ± SEM GTPγS hCB1R [9]: 7.37 ± 0.16

Cc1ccc2c(c1)Cc1c(C(=O)NN3CCCCC3)nn(-c3ccc(Cl)cc3Cl)c1-2 [Gp-1a]
TRPV3 Efficacy (% ionomycin 4μM) [5]: < 10%
IC50 [5]: 22.6 µM
CL hepatocytes human [1]: 32 µL/min/mio cells
Emax ± SEM β-AR recruitment hCB1R [6]: -83 ± 7
pEC50 ± SEM β-AR recruitment hCB1R [6]: < 5
CL microsomes human [2]: 13 µL/min/mg protein
IC50 ([7]; vs icilin […]): > 50 µM
TRPV4 Efficacy (% ionomycin 4μM) [8]: < 10%
IC50 [8]: 2.2 ± 0.1 µM
% inhibition BZD (central) [3]: -10%
pEC50 ± SEM GTPγS hCB1R [9]: < 5

CN1CCCC[C@@H]1Cn1cc(C(=O)c2cc([N+](=O)[O-])ccc2I)c2ccccc21 [(R)-AM1241]
GIRK-GTPγS bias factor (BF) ([4]; hCB2R): 0.04
GIRK-GTPγS ΔΔlogR ([4]; hCB2R): -1.39
LogR GIRK ([4]; hCB2R): 5.48
LogR GTPγS ([4]; hCB2R): 7.3
LogR pERK ([4]; hCB2R): 8.12
LogR β-AR ([4]; hCB2R): 7.21
pERK-GIRK bias factor (BF) ([4]; hCB2R): 29.32
pERK-GIRK ΔΔlogR ([4]; hCB2R): 1.47 ± 0.37
pERK-GTPγS bias factor (BF) ([4]; hCB2R): 1.18
pERK-GTPγS ΔΔlogR ([4]; hCB2R): 0.07 ± 0.55
β-AR-GIRK bias factor (BF) ([4]; hCB2R): 12.13
β-AR-GIRK ΔΔlogR ([4]; hCB2R): 1.08 ± 0.36
β-AR-GTPγS bias factor (BF) ([4]; hCB2R): 0.49
β-AR-GTPγS ΔΔlogR ([4]; hCB2R): -0.31 ± 0.54
β-AR-pERK bias factor (BF) ([4]; hCB2R): 0.41
β-AR-pERK ΔΔlogR ([4]; hCB2R): -0.38 ± 0.39
ΔLogR GIRK ([4]; hCB2R, reference CP55940): -2.38
ΔLogR GTPγS ([4]; hCB2R, reference CP55940): -0.99
ΔLogR pERK ([4]; hCB2R, reference CP55940): -0.91
ΔLogR β-AR ([4]; hCB2R, reference CP55940): -1.30
RE GIRK ([4]; hCB2R, relative effectiveness): 0.004
RE GTPγS ([4]; hCB2R, relative effectiveness): 0.10
RE pERK ([4]; hCB2R, relative effectiveness): 0.12
RE β-AR ([4]; hCB2R, relative effectiveness): 0.05
TRPV3 Efficacy (% ionomycin 4μM) [5]: 12.9%
EC50 [5]: 10 µM
IC50 [5]: > 50 µM
Emax ± SEM β-AR recruitment hCB1R [6]: 26 ± 2
pEC50 ± SEM β-AR recruitment hCB1R [6]: 5.59 ± 0.13
CL microsomes human [2]: 304 µL/min/mg protein
IC50 ([7]; vs icilin […]): > 50 µM
TRPV4 Efficacy (% ionomycin 4μM) [8]: < 10%
IC50 [8]: 8.7 ± 0.5 µM
Emax ± SEM GTPγS hCB1R [9]: 47 ± 8
pEC50 ± SEM GTPγS hCB1R [9]: 6.78 ± 0.40

Cc1c(C(=O)c2cccc3ccccc23)c2cccc3c2n1[C@H](CN1CCOCC1)CO3 [WIN55212-2]
TRPV3 Efficacy (% ionomycin 4μM) [5]: 22.9%
EC50 [5]: 6.5 µM
IC50 [5]: > 100 µM
CL hepatocytes human [1]: 42 µL/min/mio cells
CL microsomes human [2]: 194 µL/min/mg protein
IC50 [7, 10]: 19 ± 2.2 µM
IC50 ([7]; vs icilin […]): 72.9 ± 4.5 µM
TRPV4 Efficacy (% ionomycin 4μM) [8]: < 10%
IC50 [8]: 16.1 ± 1.7 µM
% inhibition BZD (central) [3]: 4%

COc1ccc(C(=O)c2c(C)n(CCN3CCOCC3)c3cc(I)ccc23)cc1 [AM630]
TRPV3 Efficacy (% ionomycin 4μM) [5]: < 10%
IC50 [5]: > 100 µM
CL hepatocytes human [1]: 16 µL/min/mio cells
CL microsomes human [2]: 82 µL/min/mg protein
IC50 [7, 10]: 1.9 ± 0.1 µM
IC50 ([7]; vs icilin […]): 4.3 ± 0.3 µM
TRPV4 Efficacy (% ionomycin 4μM) [8]: < 10%
IC50 [8]: 3.2 ± 0.1 µM
% inhibition BZD (central) [3]: -12%
